organism: Mus musculus; test: Induction of glucose-triggered insulin secretion in BALB/c mouse islets of langerhans measured per islets incubated for 60 mins by ELISA analysis (reference value: 11.8 +/- 0.8 ng/hr); type: functional; details: 1 h

Going from `COC(=O)[C@]1(C)CCC[C@@]2(C)C3=C(C)C(=O)O[C@@H](c4ccoc4)[C@@H]3[C@@H](OC(C)=O)[C@]12O` to `COC(=O)[C@]1(C)CCC[C@@]2(C)C3=C(C)C(=O)O[C@@H](C4=CC(=O)OC4O)[C@@H]3[C@@H](OC(C)=O)[C@]12O` (stereo not given in full), the Activity rises from 9.3 ng/h to 16.4 ng/h.

Compared with `CC(=O)O[C@H]1[C@@H]2[C@@H]([C@@H](C)C(=O)O[C@H]2c2ccoc2)[C@@]23CCC[C@@](C)(C(=O)OC2O)[C@@]13O` (stereo not given in full), `CC(=O)O[C@@H]1[C@H]2[C@H](c3ccoc3)OC(=O)[C@H](C)[C@@]2(O)[C@@]23CCC[C@@](C)(C(=O)OC2)[C@@]13O` is lower in Activity: 16.6 ng/h for the first, 8 ng/h for the second.

First: C[C@@H]1C(=O)O[C@@H](c2ccoc2)C[C@H]1[C@@]1(C)CCC[C@@]2(C)COC(=O)[C@@H]21
Second: C[C@H]1C(=O)O[C@@H](c2ccoc2)C[C@H]1[C@@]1(C)CCC[C@@]2(C)C(=O)OC[C@H]12
The Activity of the first is higher: 16.9 ng/h for the first, 10.6 ng/h for the second.

First: C[C@@H]1C(=O)O[C@@]23COC(=O)[C@]2(C)CCC(=O)[C@@]3(C)[C@@H]1CC(=O)c1ccoc1
Second: C[C@H]1C(=O)O[C@@]23COC(=O)[C@]2(C)CCC(=O)[C@@]3(C)[C@@H]1CC(=O)c1ccoc1
The Activity of the first is lower: 16.3 ng/h for the first, 18.4 ng/h for the second.

Compared with `C[C@@H]1C(=O)O[C@@]23CC[C@@]4(C)C(=O)OC[C@]45O[C@@](c4ccoc4)(C[C@H]1[C@]25C)O3`, `C[C@@H]1C(=O)O[C@@]23CC[C@@]4(C)C(=O)OC[C@]45O[C@@](C4=CC(=O)OC4O)(C[C@H]1[C@]25C)O3` (stereo not given in full) is lower in Activity: 25.5 ng/h for the first, 20.8 ng/h for the second.

Compared with `COC(=O)[C@]1(C)CCCC2=C1[C@@H](OC(C)=O)[C@H]1[C@H](c3ccoc3)OC(=O)[C@@H](C)[C@@]21O`, `COC(=O)[C@]1(C)CCC[C@@]2(C)[C@@]3(O)[C@@H]([C@@H](OC(C)=O)[C@@]21O)[C@H](c1ccoc1)OC(=O)[C@@H]3C` is higher in Activity: 12.5 ng/h for the first, 24.7 ng/h for the second.

Going from `CC(=O)O[C@@H]1[C@@H]2C(=C(C)C(=O)O[C@H]2c2ccoc2)[C@]2(C)[C@@H]3CC[C@@](C)(C(=O)O3)[C@@H]12` to `COC(=O)[C@]1(C)CC[C@@H](O)[C@@H]2C3=C(C)C(=O)O[C@@H](c4ccoc4)[C@@H]3[C@@H](OC(C)=O)[C@H]21`, the Activity rises from 8 ng/h to 14.6 ng/h.

First: C[C@@H]1C(=O)O[C@@]23CC[C@@]4(C)C(=O)OC[C@]45O[C@@](C4=C[C@H](O)OC4=O)(C[C@H]1[C@]25C)O3
Second: C[C@@H]1C(=O)O[C@@]23CC[C@@]4(C)C(=O)OC[C@]45O[C@@](C4=C[C@@H](O)OC4=O)(C[C@H]1[C@]25C)O3
The Activity of the first is higher: 25.5 ng/h for the first, 18.3 ng/h for the second.

First: COC(=O)[C@]1(C)CCC[C@]2(C)[C@H]1[C@H](OC(C)=O)[C@H]1[C@H](c3ccoc3)OC(=O)[C@H](C)[C@]12O
Second: COC(=O)[C@]1(C)CCC[C@@]2(C)[C@@]3(O)[C@@H]([C@@H](O)[C@@]21O)[C@H](c1ccoc1)OC(=O)[C@@H]3C
The Activity of the first is lower: 7.5 ng/h for the first, 8.2 ng/h for the second.

First: C[C@H]1C(=O)O[C@@]23COC(=O)[C@]2(C)CC[C@@]2(O)O[C@H](c4ccoc4)C[C@H]1[C@@]32C
Second: CCCCNC(=O)NS(=O)(=O)c1ccc(C)cc1 [TOLBUTAMIDE]
The Activity of the first is higher: 30.7 ng/h for the first, 19.9 ng/h for the second.

Source: ChEMBL document CHEMBL5316363, “Compounds Related to Saudin and Three New Series of Diterpenoids from Clutia lanceolata” (2023)
